This note sets out measurements from patent US11807871B2, “Complex human gut microbiome cultured in an anaerobic human gut-on-a-chip” (President and Fellows of Harvard College, priority 2018, dated 2023).

Each structure is given as a SMILES string.

The test relates to primary human colon epithelial cells infected with EHEC. As to the kind of experiment: Colon chip EHEC infection, epithelial lesion analysis. The test is classed as cell-based. The following applies: metabolites added individually to a colon-chip. As to the method: Referring generally to FIGS. 18A-18C, microbiome metabolites recapitulate species-specific tolerance in Colon Chips. Human or mouse intestinal microbiome metabolites (e.g., isolated from specific strains of bacterial or fecal samples incubated in a bioreactor) were added to the intestinal channel of optically clear, human colon chips that are lined by primary human colon epithelial cells and directly opposed to a second parallel vascular microchannel in which HIMVECs are cultured. The two channels are separated by a thin, porous, ECM-coated membrane. Human intestinal epithelium was isolated from resections or endoscopic tissue biopsies. Endoscopic biopsies were collected from macroscopicallynormal (grossly unaffected) areas of the colon undergoing endoscopy for abdominal complaints. Organoids were grown from these tissue samples and seeded into the upper chamber of a two channel closed top microfluidic device. Human intestinal microvascular endothelial cells (HIMECs) were obtained from ScienCell (Cat #2900). The intestinal luminal channel medium was switched to 5% (vol vol-1) human (Hmm) or mouse (Mmm) gut microbiome metabolites isolated from PolyFermS bioreactors, diluted in phosphate-buffered saline (PBS) containing calcium and magnesium (final osmolarity=300 mOsm kg-1), filtered through a 0.2 μm filter (Corning), and stored at −80° C.
For example, on day 8 of a colon chip culture, the luminal culture medium is replaced with the same medium supplemented with human or murine microbiome metabolites (diluted 1:20 in a PBS-water based solution to 300 mOsm kg-1), while continuing to flow the same endothelial culture medium through the vascular channel. Perfusion is continued for 24 hours, followed by introduction of EHEC (1.7×105; serotype O157:H7) into the apical lumen in the same medium for 3 hours under static conditions to allow for bacterial cell attachment; medium flow is then re-established and continued for 24 additional hours.
Referring to colon chip infection, colon chips were cultured in the intestinal lumen channel of a chip in 5% (vol vol-1) human or mouse gut microbiome metabolites isolated from PolyFermS bioreactors, diluted in phosphate-buffered saline (PBS; final osmolarity=300 mOsm kg-1) or 24 hours. The following day, the intestinal channel was infected with 1.7×105. EHEC-GFP or EHEC A fliC (both generated from NR-3 E. coli/EDL931; serotype O157:H7), by adding the bacteria into the channel lumen in medium again with or without Hmm or Mmm. […]
For epithelial lesion analysis, one day post-infection, colon chips were washed with PBS and fixed with 4% paraformaldehyde in PBS for 2 hours. […] The area occupied by cells and the total area of the chip were measured using Fiji software.
Take `Cc1ccc(C(=O)O)cc1C` [3,4-dimethylbenzoic acid]: the “epithelial injury during a EHEC infection of the chip” value is “enhance epithelial injury”.

Take `Cc1ccc(C(=O)O)cc1` [4-methyl benzoic acid]: the “epithelial injury during a EHEC infection of the chip” value is on record as “enhance epithelial injury”.

For `CCCCCCC(=O)O` [heptanoic acid], the “epithelial injury during a EHEC infection of the chip” value is on record as “enhance epithelial injury”.

For the molecule `CCCCCC(=O)O` [hexanoic acid], the “epithelial injury during a EHEC infection of the chip” value is listed as “enhance epithelial injury”.
